# Measurements taken from patent US20240409585A1, “MACROCYCLIC IMMUNOMODULATORS” (priority 2021, published 2024).
# Bridge positions count the residues as written; N and C are the ends. Square brackets hold non-standard residues; d marks the D form. Peptide text beside a SMILES is read from it. * marks the point of attachment. Phe(4-COOH) = N[C@@H](Cc1ccc(C(=O)O)cc1)C(=O)O; Bip = N[C@@H](Cc1ccc(-c2ccccc2)cc1)C(=O)O; Phe(3-Me) = Cc1cccc(C[C@H](N)C(=O)O)c1; Val(3-OH) = CC(C)(O)[C@H](N)C(=O)O; Cha = N[C@@H](CC1CCCCC1)C(=O)O; Carboxymethyl = O=C(O)C*; NMeA = CN[C@@H](C)C(=O)O; Dab = NCC[C@H](N)C(=O)O
# Molecular target: T1, PE-labeled human PD-L1-Ig binding to Jurkat cell line over-expressing human PD-1 (Jurkat-PD-1) (Homo sapiens, UniProt Q15116)
# T1 construct: expressed in transfected cells; host or cells: Jurkat
# T1 sequence (Q15116 25-288): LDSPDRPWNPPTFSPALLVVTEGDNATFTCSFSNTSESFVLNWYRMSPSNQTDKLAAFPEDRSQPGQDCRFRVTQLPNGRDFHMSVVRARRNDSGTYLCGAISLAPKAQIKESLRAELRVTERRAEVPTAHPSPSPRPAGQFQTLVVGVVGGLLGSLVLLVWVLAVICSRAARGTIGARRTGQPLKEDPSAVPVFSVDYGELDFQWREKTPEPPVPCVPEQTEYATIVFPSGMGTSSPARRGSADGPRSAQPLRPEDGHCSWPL
# Assay: Jurkat-PD-1 Cell Binding High-Content Screening Assay (CBA): Method 1
# Conditions: Jurkat-hPD-1 cells, PE-labeled PD-L1-Ig 20 nM final; read-out: Jurkat HPDL1 PD1 IC50 (uM) (Method 1)
row,IC50 [µM],Structure (SMILES)
1,0.09,Cc1cccc(C[C@@H]2NC(=O)[C@H](CC(=O)O)NC(=O)[C@H](Cc3ccc(C(=O)O)cc3)NC(=O)[C@H](Cc3ccc(OCC(=O)O)cc3)NC(=O)CSC[C@@H](C(N)=O)NC(=O)[C@H]([C@@H](C)O)NC(=O)[C@H](C(C)C)NC(=O)[C@H](CC(C)C)NC(=O)[C@H](CC(N)=O)NC(=O)[C@@H](CC(C)C)NC(=O)[C@H](C)N(C)C(=O)[C@H](C(C)C)NC(=O)[C@H](Cc3ccc(-c4ccccc4)cc3)NC(=O)[C@H](CC(C)C)NC2=O)c1 [Compound 1682] ({CH2CO}-Y(Carboxymethyl)[Phe(4-COOH)]D[Phe(3-Me)]L[Bip]V[NMeA][dL]NLVTC-NH2; thioether N-14)
2,0.03,Cc1cccc(C[C@@H]2NC(=O)[C@H](CC(=O)O)NC(=O)[C@H](Cc3ccc(C(=O)O)cc3)NC(=O)[C@H](Cc3ccc(OCC(=O)O)cc3)NC(=O)CSC[C@@H](C(N)=O)NC(=O)[C@H]([C@@H](C)O)NC(=O)[C@H](C(C)C)NC(=O)[C@H](CC3CCCCC3)NC(=O)[C@H](CC(N)=O)NC(=O)[C@@H](CC(C)C)NC(=O)[C@H](C)N(C)C(=O)[C@H](C(C)C)NC(=O)[C@H](Cc3ccc(-c4ccccc4)cc3)NC(=O)[C@H](CC(C)C)NC2=O)c1 [Compound 1683] ({CH2CO}-Y(Carboxymethyl)[Phe(4-COOH)]D[Phe(3-Me)]L[Bip]V[NMeA][dL]N[Cha]VTC-NH2; thioether N-14)
3,0.01,CC[C@H](C)[C@@H]1NC(=O)[C@H](Cc2ccc(-c3ccccc3)cc2)NC(=O)[C@H](C(C)C)NC(=O)[C@H](Cc2cccc(C)c2)NC(=O)[C@H](CC(=O)O)NC(=O)[C@H](Cc2ccc(O)cc2)NC(=O)[C@H](CC(N)=O)NC(=O)CSC[C@@H](C(=O)N[C@@H](CCN)C(N)=O)NC(=O)[C@H]([C@@H](C)O)NC(=O)[C@H](C(C)(C)O)NC(=O)[C@H](CC(C)C)NC(=O)[C@H](CCN)NC(=O)[C@@H](CC(C)C)NC(=O)[C@H](C)N(C)C1=O [Compound 1684] ({CH2CO}-NYD[Phe(3-Me)]V[Bip]I[NMeA][dL][Dab]L[Val(3-OH)]TC[Dab]-NH2; thioether N-14)
4,0.1,CC[C@H](C)[C@@H]1NC(=O)[C@H](Cc2ccc(-c3ccccc3)cc2)NC(=O)[C@H](C(C)C)NC(=O)[C@H](Cc2cccc(C)c2)NC(=O)[C@H](CC(=O)O)NC(=O)[C@H](Cc2ccc(O)cc2)NC(=O)[C@H](CC(N)=O)NC(=O)CSC[C@@H](C(=O)N[C@H](C)C(N)=O)NC(=O)[C@H]([C@@H](C)O)NC(=O)[C@H](C(C)(C)O)NC(=O)[C@H](CC(C)C)NC(=O)[C@H](CCN)NC(=O)[C@@H](CC(C)C)NC(=O)[C@H](C)N(C)C1=O [Compound 1685] ({CH2CO}-NYD[Phe(3-Me)]V[Bip]I[NMeA][dL][Dab]L[Val(3-OH)]TC[dA]-NH2; thioether N-14)
5,0.16,CC[C@H](C)[C@@H]1NC(=O)[C@H](Cc2ccc(-c3ccccc3)cc2)NC(=O)[C@H](C(C)(C)O)NC(=O)[C@H](Cc2cccc(C)c2)NC(=O)[C@H](CC(=O)O)NC(=O)[C@H](Cc2ccc(O)cc2)NC(=O)[C@H](CC(N)=O)NC(=O)CSC[C@@H](C(=O)N[C@@H](CCN)C(N)=O)NC(=O)[C@H]([C@@H](C)O)NC(=O)[C@H](C(C)C)NC(=O)[C@H](CC(C)C)NC(=O)[C@H](CCN)NC(=O)[C@@H](CC(C)C)NC(=O)[C@H](C)N(C)C1=O [Compound 1686] ({CH2CO}-NYD[Phe(3-Me)][Val(3-OH)][Bip]I[NMeA][dL][Dab]LVTC[Dab]-NH2; thioether N-14)
6,0.11,CC[C@H](C)[C@@H]1NC(=O)[C@H](Cc2ccc(-c3ccccc3)cc2)NC(=O)[C@H](C(C)(C)O)NC(=O)[C@H](Cc2cccc(C)c2)NC(=O)[C@H](CC(=O)O)NC(=O)[C@H](Cc2ccc(O)cc2)NC(=O)[C@H](CC(N)=O)NC(=O)CSC[C@@H](C(=O)N[C@@H](CCN)C(N)=O)NC(=O)[C@H]([C@@H](C)O)NC(=O)[C@H](C(C)(C)O)NC(=O)[C@H](CC(C)C)NC(=O)[C@H](CCN)NC(=O)[C@@H](CC(C)C)NC(=O)[C@H](C)N(C)C1=O [Compound 1687] ({CH2CO}-NYD[Phe(3-Me)][Val(3-OH)][Bip]I[NMeA][dL][Dab]L[Val(3-OH)]TC[Dab]-NH2; thioether N-14)
